What was measured:
Assay type in all cases: cell-based
P. aeruginosa = assay: agar dilution test, growth inhibition of P. aeruginosa; details: Pseudomonas aeruginosa; Pa = P. aeruginosa; 100% growth inhibition (kills); read-out: Minimum Growth Inhibitory Concentration
Procedure: (§1) In representative operations, compounds of the present invention were tested for their activity as antimicrobials using conventional agar dilution tests. The following Table presents results, expressed as concentration of toxicant in parts per million to achieve 100% growth inhibition (kills) of the indicated organisms.

S. aureus = assay: agar dilution test, growth inhibition of S. aureus; details: Staphylococcus aureus; Sa = S. aureus; 100% growth inhibition (kills); read-out: Minimum Growth Inhibitory Concentration
Procedure: as §1

C. albicans = assay: agar dilution test, growth inhibition of C. albicans; details: Candida albicans; Ca = C. albicans; 100% growth inhibition (kills); read-out: Minimum Growth Inhibitory Concentration
Procedure: as §1

T, mentagrophytes = assay: agar dilution test, growth inhibition of T, mentagrophytes; details: Tm = T, 100% growth inhibition (kills), read-out: Minimum Growth Inhibitory Concentration
Procedure: as §1

B. subtilis = assay: agar dilution test, growth inhibition of B. subtilis; set-up: key to Minimum Growth Inhibitory Concentration: *: 50% control at 500 ppm; details: Bs = B. subtilis, 100% growth inhibition (kills); for MIC: Bacillus subtilis, read-out: Minimum Growth Inhibitory Concentration
Procedure: as §1

A. terreus = assay: agar dilution test, growth inhibition of A. terreus; details: Aspergillus terreus; At = A. terreus; 100% growth inhibition (kills); read-out: Minimum Growth Inhibitory Concentration
Procedure: as §1

C. pelliculosa = assay: agar dilution test, growth inhibition of C. pelliculosa; details: Hansenula anomala; Cp = C. pelliculosa; 100% growth inhibition (kills); read-out: Minimum Growth Inhibitory Concentration
Procedure: as §1

P. pullulans = assay: agar dilution test, growth inhibition of P. pullulans; details: Pp = P. pullulans; 100% growth inhibition (kills); read-out: Minimum Growth Inhibitory Concentration
Procedure: as §1

S. typhosa = assay: agar dilution test, growth inhibition of S. typhosa; details: St = S. typhosa; 100% growth inhibition (kills); read-out: Minimum Growth Inhibitory Concentration
Procedure: as §1

M. phlei = assay: agar dilution test, growth inhibition of M. phlei; details: Mycolicibacterium phlei; Mp = M. phlei; 100% growth inhibition (kills); read-out: Minimum Growth Inhibitory Concentration
Procedure: as §1

R. nigricans = assay: agar dilution test, growth inhibition of R. nigricans; details: Rhizopus stolonifer; Rn = R. nigricans; 100% growth inhibition (kills); read-out: Minimum Growth Inhibitory Concentration
Procedure: as §1

Ceratocystis ips = assay: agar dilution test, growth inhibition of Ceratocystis ips; details: Ci = Ceratocystis ips; 100% growth inhibition (kills); read-out: Minimum Growth Inhibitory Concentration
Procedure: as §1

Cephaloascus fragans = assay: agar dilution test, growth inhibition of Cephaloascus fragans; details: Cf = Cephaloascus fragans; 100% growth inhibition (kills); read-out: Minimum Growth Inhibitory Concentration
Procedure: as §1

[1] = system: Trichoderm Sp. Madison P-42; assay: agar dilution test, growth inhibition of Trichoderm Sp. Madison P-42; details: Ts = Trichoderm Sp. Madison P-42; 100% growth inhibition (kills); read-out: Minimum Growth Inhibitory Concentration
Procedure: as §1

CC1CN(S(=O)(=O)C(Br)Br)CC(C)O1 (stereo not shown) [1 (b), 2,6-Dimethyl-4-((dibromomethyl)sulfonyl)morpholine]
> 500 µg/mL: MIC (P. aeruginosa) | MIC (S. aureus) | MIC (S. typhosa) | MIC (M. phlei) | MIC (Ceratocystis ips) | MIC [1]
*: Minimum Growth Inhibitory Concentration (B. subtilis)
500 µg/mL: MIC (C. albicans) | MIC (T, mentagrophytes) | MIC (A. terreus) | MIC (C. pelliculosa) | MIC (P. pullulans) | MIC (R. nigricans) | MIC (Cephaloascus fragans)

CC1CN(S(=O)(=O)C(Br)(Br)Br)CC(C)O1 (stereo not shown) [1 (a), 2,6-Dimethyl-4-((tribromomethyl)sulfonyl)morpholine]
10 µg/mL: MIC (A. terreus)
100 µg/mL: MIC (P. aeruginosa) | MIC (C. albicans) | MIC (T, mentagrophytes) | MIC (B. subtilis) | MIC (C. pelliculosa) | MIC (P. pullulans) | MIC (M. phlei) | MIC (R. nigricans) | MIC (Ceratocystis ips) | MIC (Cephaloascus fragans) | MIC [1]
500 µg/mL: MIC (S. aureus)

O=S(=O)(N1CCOCC1)C(Br)(Br)Br [2 (b)]
100 µg/mL: MIC (P. aeruginosa) | MIC (C. albicans) | MIC (T, mentagrophytes) | MIC (B. subtilis) | MIC (A. terreus) | MIC (C. pelliculosa) | MIC (P. pullulans) | MIC (M. phlei) | MIC (R. nigricans) | MIC (Ceratocystis ips) | MIC (Cephaloascus fragans) | MIC [1]
500 µg/mL: MIC (S. aureus)

Source: US4014875A, “Process of making di or tribromomethanesulfonamides” (The Dow Chemical Company, priority 1975, dated 1977)
